Measurements reported in ChEMBL document CHEMBL1821551, “From fragment screening to in vivo efficacy: optimization of a series of 2-aminoquinolines as potent inhibitors of beta-site amyloid precursor protein cleaving enzyme 1 (BACE1)” (J Med Chem, 2011).

Test system: human MDR1 (P-gp)
Experiment: in vitro
Settings: pig, LLC-PK1

Papp [nm/s] | SMILES
160 | Cc1ccccc1-c1ccc2nc(N)c(CC(C)C(=O)NCc3cccnc3)cc2c1 (racemic)
65 | Cc1ccccc1-c1ccc2nc(N)c(C[C@@H](C)C(=O)NCc3ccccc3)cc2c1
120 | Cc1ccccc1-c1ccc2nc(N)c(CC(C)C(=O)NCc3cncs3)cc2c1 (racemic)
